# Several values for one entry are separate records, joined by “and”; a condition that tells them apart may be missing. Identical values can stand only once. Entries after “also recorded” stand apart in the source; their conditions may differ. Like-named read-outs stand apart in the source and are kept apart here. Marks after values point to notes of the source that are not given here.
# Assays:
# [1] = biological target: T1, soybean lipoxygenase (LOX) (Glycine max, UniProt P08170); assay: Soybean lipoxygenase inhibition (UV absorbance at 234 nm); type: biochemical; details: for % inhibition LOX: at 0.1 mmol
# T1 sequence (P08170 1-839): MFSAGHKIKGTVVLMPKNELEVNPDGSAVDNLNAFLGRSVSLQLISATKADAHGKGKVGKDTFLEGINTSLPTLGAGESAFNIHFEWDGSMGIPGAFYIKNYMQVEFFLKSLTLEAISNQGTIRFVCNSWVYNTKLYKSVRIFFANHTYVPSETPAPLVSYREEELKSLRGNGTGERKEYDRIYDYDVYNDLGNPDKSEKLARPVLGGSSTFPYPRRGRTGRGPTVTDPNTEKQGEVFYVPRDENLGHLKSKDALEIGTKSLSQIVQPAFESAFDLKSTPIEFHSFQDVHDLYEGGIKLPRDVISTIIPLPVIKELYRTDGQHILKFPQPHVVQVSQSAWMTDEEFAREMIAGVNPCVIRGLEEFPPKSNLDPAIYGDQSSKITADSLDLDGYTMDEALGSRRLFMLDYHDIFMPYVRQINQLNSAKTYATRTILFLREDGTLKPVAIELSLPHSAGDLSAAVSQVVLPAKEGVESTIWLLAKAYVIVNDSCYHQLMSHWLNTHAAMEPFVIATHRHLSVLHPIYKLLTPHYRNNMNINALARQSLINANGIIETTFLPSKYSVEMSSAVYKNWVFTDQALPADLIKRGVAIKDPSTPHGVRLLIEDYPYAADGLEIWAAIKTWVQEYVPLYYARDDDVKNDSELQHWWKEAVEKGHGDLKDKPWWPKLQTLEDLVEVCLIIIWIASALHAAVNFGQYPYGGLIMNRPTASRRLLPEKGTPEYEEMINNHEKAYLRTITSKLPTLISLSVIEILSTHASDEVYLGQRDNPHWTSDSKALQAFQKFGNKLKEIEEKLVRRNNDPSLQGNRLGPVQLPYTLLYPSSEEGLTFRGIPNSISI
# Protocol: The tested compounds dissolved in DMSO or ethanol (concentrations ranged from 0.1 to 1 mM) were incubated at room temperature with sodium linoleate (0.1 mmol) and 0.2 mL of enzyme solution (250 U/mL in saline).
# While one may not extrapolate the quantitative results of this assay to the inhibition of mammalian 5-LOX, it has been shown that inhibition of plant lipoxygenase activity by NSAIDs is qualitatively similar to their inhibition of the rat mast cell lipoxygenase and may be used as a simple qualitative screen for such activity. […] The IC50 values for compounds 14, 16, 17, 19, and 22 were determined.
# [2] = tested on: carrageenin mice paw edema (CPE); assay: Carrageenin-induced mice paw edema inhibition; type: in vivo, AKR or A mice
# Protocol: AKR or A mice (20–30 g, groups of ten) of both sexes were used. Females pregnant were excluded. A single dose of 0.2 mmol/kg body weight of compounds 12, 16, 20, 21 and 0.01 mmol/kg of compound 22 or 0.013 mmol/kg of compound 14 suspended in water with few drops of Tween 80 was administered intraperitoneally simultaneously to the intradermally injection of 0.05 mL carrageenin in the right hind paw. Indomethacin was used as a standard diluted agent.
# Organosilicon-containing compounds 12, 14, 16, 20–22 were examined in vivo for their anti-inflammatory activity using the carrageenin mice paw edema (CPE) as a model of inflammation. The in vivo anti-inflammatory effects of the tested thiazole derivatives were assessed by using the functional model of carrageenin-induced […] paw edema and are presented in Table 1 as percentage of weight increase at the right hind paw in comparison to the uninjected left hind paw.
# [3] = tested on: HT-1080 (human fibrosarcoma); assay: In vitro cytotoxicity, HT-1080; type: cell-based; details: for stimulation of HT-1080 cell growing: CV, at all studied concentrations; for CC50: Homo sapiens; for LC50 HT-1080: human fibrosarcoma, coloration not stated
# Protocol: (§1) Monolayer tumour cell lines MG-22A (mouse hepatoma), HT-1080 (human fibrosarcoma), and normal mouse fibroblasts (NIH 3T3) were cultivated for 72 hours in DMEM standard medium (Sigma) without an indicator and antibiotics. After the ampoule had thawed, cells from one to four passages were used in three concentrations of test compound: 1, 10 and 100 μg mL^−1. The control cells and cells with tested compounds in the range of 2–5* 10^4 cell mL^−1 concentration (depending on line nature) were placed on separate 96 wells plates. Solutions containing test compounds were diluted and added in wells to give the final concentrations. Control cells were treated in the same manner only in the absence of test compounds. Plates were cultivated for 72 hours. The number of survived cells was determined using crystal violet (CV), 3-(4,5-dimethylthiazol-2-yl)-2,5-diphenyltetrazolinium bromide (MTT), or neutral red (NR) coloration which was assayed by multiscan spectrophotometer. The quantity of alive cells on control plate was taken in calculations for 100% [22, 23]. The LC50 was calculated using Graph Pad Prism 3.0 program, r < .05. Concentration of NO was determined according to [23].
# [4] = tested on: MG-22A (mouse hepatoma); assay: In vitro cytotoxicity, MG-22A; type: cell-based; details: for CC50: Mus musculus, MG-22A; for LC50 MG-22A: mouse hepatoma, coloration not stated
# Protocol: as §1
# [5] = In vitro cytotoxicity, NIH 3T3 (neutral red) and LD50; type: cell-based; details: for CC50 at 72 h: 50% cell killing, neutral red coloration, normal mouse fibroblasts, read-out: LC50 NIH 3T3 NR; for LD50: mouse, NIH 3T3, method not described
# Protocol: The control cells and cells with tested compounds in the range of 2–5* 10^4 cell mL^−1 concentration (depending on line nature) were placed on separate 96 wells plates. […] Control cells were treated in the same manner only in the absence of test compounds. Plates were cultivated for 72 hours. The number of survived cells was determined using crystal violet (CV), 3-(4,5-dimethylthiazol-2-yl)-2,5-diphenyltetrazolinium bromide (MTT), or neutral red (NR) coloration which was assayed by multiscan spectrophotometer. The quantity of alive cells on control plate was taken in calculations for 100% [22, 23]. The LC50 was calculated using Graph Pad Prism 3.0 program, r < .05. Concentration of NO was determined according to [23].
# [6] = tested on: HT-1080 (human fibrosarcoma); assay: Intracellular NO generation, HT-1080; type: cell-based; details: CV coloration
# Protocol: as §1
# [7] = tested on: MG-22A (mouse hepatoma); assay: Intracellular NO generation, MG-22A; type: cell-based; details: CV coloration
# Protocol: as §1
# [8] = tested on: HT-1080 (human fibrosarcoma); details: cited from earlier work
# [9] = dose 0.2 mmol/kgbw, intraperitoneally
# [10] = HT-1080, 72 h, read-out: LC50 HT-1080 MTT
# [11] = 72 h, read-out: LC50 MG-22A MTT
# [12] = soybean lipoxygenase, sodium linoleate 0.1 mmol, read-out: IC50 LOX
# [13] = HT-1080, 50% cell killing, MTT coloration, 72 hours, read-out: LC50 HT-1080 MTT
# [14] = HT-1080, 50% cell killing, crystal violet coloration, 72 hours, read-out: LC50 HT-1080 CV
# [15] = 50% cell killing, MTT coloration, 72 hours, read-out: LC50 MG-22A MTT
# [16] = 50% cell killing, crystal violet coloration, 72 hours, read-out: LC50 MG-22A CV
# [17] = NIH 3T3 normal mouse fibroblasts
structure (smiles),measurement,setting,value
"C[Si](C)(C)OC1CCN(CC(=O)Nc2nc(-c3ccccc3)cs2)CC1 [Compound 18, 2-(4-trimethylsiloxypiperidin-1-yl)-N-(4-phenylthiazol-2-yl)-acetamide]",% inhibition LOX,[1]; soybean lipoxygenase,66.7%
"Cc1ncsc1CCO[Si](C)(C)C [Compound 12, 4-methyl-5-(β-trimethylsiloxyethyl)-thiazole]",% carrageenin mice paw edema inhibition (CPE%),[2]; [9],24 ^** %
same,% inhibition LOX,[1]; soybean lipoxygenase,9.1%
"C[Si](C)(C)OC1CCN(CC(=O)Nc2nccs2)CC1 [Compound 17, 2-(4-trimethylsiloxypiperidin-1-yl)-N-(thiazol-2-yl)-acetamide]",IC50,[1],350 µM
same,stimulation of HT-1080 cell growing,[3],up to 55%
same,CC50,[3]; [10],> 100 µg/mL
same,LC50 HT-1080,[3],do not exhibit cytotoxic properties; also recorded: inactive
same,decrease of MG-22A cell growing,[4]; MTT coloration,up to 40%
same,CC50,[4]; [11],> 100 µg/mL
same,LC50 MG-22A,[4],do not exhibit cytotoxic properties; also recorded: inactive
same,CC50 at 72 h,[5],> 100 µg/mL
same,LD50,[5],2130 mg/kg
same,NO HT-1080 CV,[6],11
same,NO MG-22A CV,[7],23
"C[Si](C)(C)OCc1csc(-c2ccccc2)n1 [Compound 16, 2-phenyl-4-trimethylsilox-ymethyl-thiazole]",% carrageenin mice paw edema inhibition (CPE%),[2]; [9],47.6 ^* %
same,IC50,[1]; [12],470 µM
"C[Si](C)(C)CCC[n+]1ccsc1N.[I-] [Compound 22, 2-amino-3-(γ-trimethylsilylpropyl)thiazolium iodide]",% carrageenin mice paw edema inhibition (CPE%),"[2]; dose 0.01 mmol/kg, intraperitoneally",55.0% and 55.0 ^* %
same,IC50,[1]; [12],460 µM
"C[Si](C)(C)OC1CCN(CCC(=O)Nc2nccs2)CC1 [Compound 21, 3-(4-trimethylsiloxypiperidin-1-yl)-N-(thiazol-2-yl)-propionamide]",% carrageenin mice paw edema inhibition (CPE%),[2]; [9],57.2% and 57.2 ^* %
same,LC50 human fibrosarcoma,[8],44 µg/mL
"COc1ccc(-c2csc(NC(=O)CN3CCC(O[Si](C)(C)C)CC3)n2)cc1 [Compound 19, 2-(4-trimethylsilyloxypiperidin-1-yl)-N-[4-(p-methoxyphenyl)-thiazol-2-yl]-acetamide]",IC50,[1],10 µM
same,CC50,[3]; [10],100 µg/mL
same,CC50,"[3]; HT-1080, read-out: LC50 HT-1080",> 100 µg/mL
same,CC50,"[4]; 72 h, read-out: LC50 MG-22A CV",21 µg/mL
same,CC50,[4]; [11],13 µg/mL
same,CC50,[4]; read-out: LC50 MG-22A,30 µM
same,CC50 at 72 h,[5],72 µg/mL
same,LD50,[5],839 mg/kg
same,NO HT-1080 CV,[6],27
same,NO MG-22A CV,[7],122
"COc1ccc(-c2csc(NC(=O)CN3CCC(O)CC3)n2)cc1 [Compound 8, 2-(4-hy-droxypiperidin-1-yl)-N-[4-(p-methoxyphenyl)-thiazol-2-yl]-acetamide]",CC50,[3]; [13],100 µg/mL
same,CC50,[3]; [14],> 100 µg/mL
same,CC50,[4]; [15],16 µg/mL
same,CC50,[4]; [16],17 µg/mL
same,CC50 at 72 h,[5]; [17],> 100 µg/mL
same,LD50,[5],1110 mg/kg
same,NO HT-1080 CV,[6],8
same,NO MG-22A CV,[7],75
"O=C(CN1CCC(O)CC1)Nc1nccs1 [Compound 6, 2-(4-hydroxypiperidin-1-yl)-N-(thiazol-2-yl)-acetnamide]",stimulation of HT-1080 cell growing,[3],up to 55%
same,CC50,[3]; [13],> 100 µg/mL
same,CC50,[3]; [14],> 100 µg/mL
same,LC50 HT-1080,[3],do not exhibit cytotoxic properties
same,decrease of MG-22A cell growing,[4]; MTT coloration,up to 40%
same,CC50,[4]; [15],> 100 µg/mL
same,CC50,[4]; [16],> 100 µg/mL
same,LC50 MG-22A,[4],do not exhibit cytotoxic properties
same,CC50 at 72 h,[5]; [17],> 100 µg/mL
same,LD50,[5],> 2000 mg/kg
same,NO HT-1080 CV,[6],4
same,NO MG-22A CV,[7],6
"CCCCCCCCCCCCCCc1sc(NC(=O)CN2CCC(O[Si](C)(C)C)CC2)nc1-c1ccccc1 [Compound 20, 2-(4-trimethylsiloxypiperidin-1-yl)-N-(4-phenyl-5-tetradecylthi-azol-2-yl)-acetamide]",% carrageenin mice paw edema inhibition (CPE%),[2]; [9],38.3 ^* %
same,lower lipoxygenase inhibiting properties in comparison with compound 18,[1]; difference of % inhibition at 0.1 mmol,26%
same,% inhibition LOX,[1]; soybean lipoxygenase,40.8%
"C[Si](C)(C)OCc1csc(N)n1 [Compound 14, 2-amino-4-trimethylsiloxymethyl-thiazole]",% carrageenin mice paw edema inhibition (CPE%),"[2]; dose 0.013 mmol/kg, intraperitoneally",35.5 ^* %
same,IC50,[1]; [12],100 µM
"COc1ccc2c(c1)c(CC(=O)O)c(C)n2C(=O)c1ccc(Cl)cc1 [Indomethacin, reference compound]",% carrageenin mice paw edema inhibition (CPE%),"[2]; standard, dose 0.1 mmol/kgbw",57.4%
"O=C(CCN1CCC(O)CC1)Nc1nccs1 [Compound 10, 3-(4-hydroxypiperidin-1-yl)-N-(thiazol-2-yl)-propionamide]",LC50 human fibrosarcoma,"[8]; HT-1080, coloration not stated, previously published data ref 17",48 µg/mL
